# ChEMBL document CHEMBL1201862, “PubChem BioAssay data set” (2004)
#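 96-well plates; 48 h exposure; 5 concentrations. Endpoints by linear interpolation between flanking doses. Not reached: highest tested concentration assigned. GI50 is the concentration that inhibits growth by half.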 Activity calls are given as the source filed them. No stated cut-off is given here; in the data, active = GI50 up to about 1.1 µM and inactive = higher.
# Assays:
# Assay in all cases: inhibition of tumour cell growth, NCI panel, 48 h
# [1] = system: 786-0
# [2] = system: A549
# [3] = system: ACHN
# [4] = system: BT-549
# [5] = system: CAKI-1
# [6] = system: CCRF-CEM
# [7] = system: COLO 205
# [8] = system: DU-145
# [9] = system: EKVX
# [10] = system: HCC 2998
# [11] = system: HCT-116
# [12] = system: HCT-15
# [13] = system: HL-60
# [14] = system: HOP-62
# [15] = system: HOP-92
# [16] = system: HT-29
# [17] = system: IGROV-1
# [18] = system: K562
# [19] = system: KM12
# [20] = system: M14
# [21] = system: MCF7
# [22] = system: MDA-N
# [23] = system: MOLT-4
# [24] = system: Malme-3M
# [25] = system: NCI-H226
# [26] = system: NCI-H23
# [27] = system: NCI-H460
# [28] = system: NCI-H522
# [29] = system: NCI/ADR-RES
# [30] = system: OVCAR-3
# [31] = system: OVCAR-4
# [32] = system: OVCAR-5
# [33] = system: OVCAR-8
# [34] = system: PC-3
# [35] = system: RPMI-8226
# [36] = system: RXF 393
# [37] = system: SF-268
# [38] = system: SF-295
# [39] = system: SF-539
# [40] = system: SK-MEL-28
# [41] = system: SK-MEL-2
# [42] = system: SK-MEL-5
# [43] = system: SK-OV-3
# [44] = system: SN12C
# [45] = system: SNB-19
# [46] = system: SNB-75
# [47] = system: SR
# [48] = system: SW-620
# [49] = system: TK-10
# [50] = system: U-251
# [51] = system: UACC-257
# [52] = system: UACC-62
# [53] = system: UO-31
# [54] = system: LOX IMVI
# [55] = system: MDA-MB-231
# [56] = system: MDA-MB-435
# [57] = system: Hs-578T
smiles,measurement,setting,value
O=C1c2ccccc2-c2nc3ccc(O)cc3n21,GI50,[1],> 100 µM (inactive)
same,GI50,[2],> 100 µM (inactive)
same,GI50,[3],> 100 µM (inactive)
same,GI50,[4],> 100 µM (inactive)
same,GI50,[5],> 100 µM (inactive)
same,GI50,[6],> 100 µM (inactive)
same,GI50,[7],> 100 µM (inactive)
same,GI50,[8],> 100 µM (inactive)
same,GI50,[9],> 100 µM (inactive)
same,GI50,[10],> 100 µM (inactive)
same,GI50,[11],> 100 µM (inactive)
same,GI50,[12],> 100 µM
same,GI50,[13],> 100 µM (inactive)
same,GI50,[14],> 100 µM (inactive)
same,GI50,[15],> 100 µM (inactive)
same,GI50,[16],> 100 µM (inactive)
same,GI50,[17],> 100 µM (inactive)
same,GI50,[18],> 100 µM (inactive)
same,GI50,[19],> 100 µM (inactive)
same,GI50,[20],> 100 µM (inactive)
same,GI50,[21],> 100 µM (inactive)
same,GI50,[22],> 100 µM (inactive)
same,GI50,[23],> 100 µM (inactive)
same,GI50,[24],> 100 µM (inactive)
same,GI50,[25],> 100 µM (inactive)
same,GI50,[26],> 100 µM (inactive)
same,GI50,[27],> 100 µM (inactive)
same,GI50,[28],> 100 µM (inactive)
same,GI50,[29],> 100 µM (inactive)
same,GI50,[30],> 100 µM (inactive)
same,GI50,[31],> 100 µM (inactive)
same,GI50,[32],> 100 µM (inactive)
same,GI50,[33],> 100 µM (inactive)
same,GI50,[34],> 100 µM (inactive)
same,GI50,[35],> 100 µM (inactive)
same,GI50,[36],> 100 µM (inactive)
same,GI50,[37],> 100 µM (inactive)
same,GI50,[38],> 100 µM (inactive)
same,GI50,[39],> 100 µM (inactive)
same,GI50,[40],> 100 µM (inactive)
same,GI50,[41],> 100 µM (inactive)
same,GI50,[42],> 100 µM (inactive)
same,GI50,[43],> 100 µM (inactive)
same,GI50,[44],> 100 µM (inactive)
same,GI50,[45],> 100 µM (inactive)
same,GI50,[46],34.1 µM (inactive)
same,GI50,[47],> 100 µM (inactive)
same,GI50,[48],> 100 µM (inactive)
same,GI50,[49],> 100 µM (inactive)
same,GI50,[50],> 100 µM (inactive)
same,GI50,[51],> 100 µM (inactive)
same,GI50,[52],> 100 µM (inactive)
same,GI50,[53],> 100 µM (inactive)
CC1C(=O)C(C)C(c2ccccc2)N(C)C1c1ccccc1 (stereo not drawn),GI50,[13],20.7 µM (inactive)
same,GI50,[16],28.6 µM (inactive)
same,GI50,[23],19.9 µM (inactive)
same,GI50,[32],50.9 µM (inactive)
same,GI50,[35],21.8 µM (inactive)
same,GI50,[47],20.2 µM (inactive)
CCOC(=O)N/N=C(\Cc1ccccc1)OCC,GI50,[1],> 100 µM (inactive)
same,GI50,[2],> 100 µM (inactive)
same,GI50,[3],> 100 µM (inactive)
same,GI50,[4],> 100 µM (inactive)
same,GI50,[6],> 100 µM (inactive)
same,GI50,[7],> 100 µM (inactive)
same,GI50,[8],> 100 µM (inactive)
same,GI50,[9],> 100 µM (inactive)
same,GI50,[10],> 100 µM (inactive)
same,GI50,[11],> 100 µM (inactive)
same,GI50,[12],> 100 µM
same,GI50,[14],> 100 µM (inactive)
same,GI50,[15],> 100 µM (inactive)
same,GI50,[16],> 100 µM (inactive)
same,GI50,[17],> 100 µM (inactive)
same,GI50,[18],> 100 µM (inactive)
same,GI50,[19],> 100 µM (inactive)
same,GI50,[54],> 100 µM (inactive)
same,GI50,[20],> 100 µM (inactive)
same,GI50,[21],> 100 µM (inactive)
same,GI50,[55],> 100 µM (inactive)
same,GI50,[56],> 100 µM (inactive)
same,GI50,[22],> 100 µM (inactive)
same,GI50,[23],> 100 µM (inactive)
same,GI50,[26],> 100 µM (inactive)
same,GI50,[28],> 100 µM (inactive)
same,GI50,[29],> 100 µM (inactive)
same,GI50,[30],> 100 µM (inactive)
same,GI50,[31],> 100 µM (inactive)
same,GI50,[32],> 100 µM (inactive)
same,GI50,[33],> 100 µM (inactive)
same,GI50,[34],> 100 µM (inactive)
same,GI50,[35],> 100 µM (inactive)
same,GI50,[36],> 100 µM (inactive)
same,GI50,[37],> 100 µM (inactive)
same,GI50,[38],> 100 µM (inactive)
same,GI50,[39],> 100 µM (inactive)
same,GI50,[41],> 100 µM (inactive)
same,GI50,[42],> 100 µM (inactive)
same,GI50,[43],> 100 µM (inactive)
same,GI50,[44],> 100 µM (inactive)
same,GI50,[45],> 100 µM (inactive)
same,GI50,[46],> 100 µM (inactive)
same,GI50,[47],> 100 µM (inactive)
same,GI50,[48],> 100 µM (inactive)
same,GI50,[49],> 100 µM (inactive)
same,GI50,[50],> 100 µM (inactive)
same,GI50,[51],> 100 µM (inactive)
same,GI50,[52],> 100 µM (inactive)
same,GI50,[53],> 100 µM (inactive)
CN(CCNC(=O)c1c[nH]c2c1Cc1ccccc1-2)CCNC(=O)c1c[nH]c2c1Cc1ccccc1-2,GI50,[1],20.6 µM (inactive)
same,GI50,[2],43.2 µM (inactive)
same,GI50,[3],43.6 µM (inactive)
same,GI50,[4],36.6 µM (inactive)
same,GI50,[5],48.6 µM (inactive)
same,GI50,[7],35 µM (inactive)
same,GI50,[8],60.1 µM (inactive)
same,GI50,[9],37.1 µM (inactive)
same,GI50,[10],52.6 µM (inactive)
same,GI50,[11],36.1 µM (inactive)
same,GI50,[12],30.9 µM
same,GI50,[13],31 µM (inactive)
same,GI50,[14],26.4 µM (inactive)
same,GI50,[15],22.6 µM (inactive)
same,GI50,[16],35.1 µM (inactive)
same,GI50,[57],35.3 µM (inactive)
same,GI50,[17],27.9 µM (inactive)
same,GI50,[18],30.3 µM (inactive)
same,GI50,[19],33.3 µM (inactive)
same,GI50,[54],29.9 µM (inactive)
same,GI50,[20],30.8 µM (inactive)
same,GI50,[21],22.9 µM (inactive)
same,GI50,[55],28.6 µM (inactive)
same,GI50,[56],17.1 µM (inactive)
same,GI50,[22],15.2 µM (inactive)
same,GI50,[23],24.7 µM (inactive)
same,GI50,[24],82.8 µM (inactive)
same,GI50,[25],24.6 µM (inactive)
same,GI50,[26],41.5 µM (inactive)
same,GI50,[27],35.1 µM (inactive)
same,GI50,[28],19.6 µM (inactive)
same,GI50,[29],29.4 µM (inactive)
same,GI50,[30],21 µM (inactive)
same,GI50,[31],59.3 µM (inactive)
same,GI50,[32],> 100 µM (inactive)
same,GI50,[33],32.1 µM (inactive)
same,GI50,[34],18.2 µM (inactive)
same,GI50,[35],26.5 µM (inactive)
same,GI50,[36],30.5 µM (inactive)
same,GI50,[37],32 µM (inactive)
same,GI50,[38],26.9 µM (inactive)
same,GI50,[39],19.5 µM (inactive)
same,GI50,[40],48.5 µM (inactive)
same,GI50,[41],20.6 µM (inactive)
same,GI50,[42],21.8 µM (inactive)
same,GI50,[44],66.4 µM (inactive)
same,GI50,[45],58.2 µM (inactive)
same,GI50,[47],29.6 µM (inactive)
same,GI50,[48],39.4 µM (inactive)
same,GI50,[49],45.9 µM (inactive)
same,GI50,[50],18.5 µM (inactive)
same,GI50,[51],43.8 µM (inactive)
same,GI50,[52],18 µM (inactive)
same,GI50,[53],28.6 µM (inactive)
